Reference: publication PMC10786037, “Autoinhibition in the Signal Transducer CIN85 Modulates B Cell Activation” (Journal of the American Chemical Society, 2023)
Values belong to the molecule of their own block, whether it stands above or below them. Where no end group is shown, it is not given here. [ ]: non-standard residue; d: D form. pS = N[C@@H](COP(=O)(O)O)C(=O)O

Key:
CIN85 SH3C domain [1] = biological target: T1, CIN85 SH3C domain (Homo sapiens, UniProt Q96B97); assay: NMR titration (chemical shift perturbations) of 15N-labeled SH3C domain with synthetic CIN85-PRM1 peptides; format: binding; details: for difference in binding energy compared to wild-type peptide (ΔΔG, net energetic contribution of the mutated residue): calculated from the KD's of mutant and wild-type peptide to SH3C; for fold increase of KD compared to wild-type peptide: mutant peptide binding to SH3C domain
T1 construct: His7 (with TEV protease cleavage site) (N, cleaved yes); made in house; host or cells: Escherichia coli BL21(DE3)
T1 sequence (Q96B97 267-328 limits assumed): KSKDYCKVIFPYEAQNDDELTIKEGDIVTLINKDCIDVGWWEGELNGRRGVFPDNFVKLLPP
Excerpt: (§1) The recognition of PRM by SH3 domains typically depends on the presence of positively charged residues, such as arginines at the motif’s N- or C-terminus, which often form cation−π interactions with conserved tryptophan residues in the SH3 binding interface.[30] […] We therefore used CIN85-PRM1 mutant peptide binding to the SH3C domain to determine the role of both arginines (R227 and R229) in this interaction. […] Because we knew that this interaction was in part driven by cation−π interactions, we anticipated a net energetic contribution on the order of −12 ± 6 kJ/mol if such an interaction would be disturbed by the mutation.[32] […] In the context of the whole protein, local concentration and/or cooperative effects could increase the actual strength of this interaction considerably. The residue S230 is adjacent to R229 and a known site for activation-induced phosphorylation in CIN85[33],[34] (see also Figure S4). To investigate the effect of S230s involvement in this interaction, we incorporated a phosphoserine (pS230), a S230D, and a S230A mutation into the synthetic peptide.
(§2) with 1000 resampled datasets with replacement. After obtaining the dissociation constant, the
(§3) Gibbs free energy of this interaction was calculated using the following relation: […]
(§4) Their difference in free energy can then be calculated as follows: […]
(§5) The value of ∆∆G here has the meaning of the stability contribution or net energetic contribution
(§6) of the residue that was mutated. […]

CIN85 SH3C domain [2] = assay: as above; format: binding, human; details: same peptide
Excerpt: as §1, §2, §3, §4, §5, §6

CIN85 SH3B domain [3] = biological target: T2, CIN85 SH3B domain (Homo sapiens, UniProt Q96B97); assay: NMR titration (chemical shift perturbations) of 15N-labeled SH3B domain with synthetic CIN85-PRM1 peptide; format: binding; details: isolated SH3B domain, CSP of 15N-labeled domain, error of fitted KD from bootstrap resampling, read-out: KD (mM), binary SH3:peptide interaction
T2 construct: GST (with thrombin cleavage site) (N); made in house; host or cells: Escherichia coli BL21(DE3)
T2 sequence (Q96B97 98-157 limits assumed): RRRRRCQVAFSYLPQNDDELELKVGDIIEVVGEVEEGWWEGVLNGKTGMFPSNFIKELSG
Excerpt: (§7) We further used NMR titrations to assess the interaction of CIN85-PRM1 with isolated SH3 domains of CIN85, observing chemical shift perturbations (CSP) in the ^15N-labeled SH3 domains upon titration with a synthetic 14-residue peptide of the sequence ^219FKDKPIKLRPRSIE^232 (see Figure S2). […] We mapped the CSP onto the first model of the NMR structure of SH3C (PDB: 2k9g) in Figure 2A. Binding to the CIN85-PRM1 peptide occurs through the conserved binding site, involving the RT-loop (residues 278–292), the N-Src-loop (residues 300–307), and also the 3_10-helix (residues 320–322) of SH3C (see Figure 2B). […]
(§8) with 1000 resampled datasets with replacement. After obtaining the dissociation constant, the Gibbs free energy of this interaction was calculated using the following relation: […]
(§9) with R as the ideal gas constant (8.314 Jmol−1K−1) and T as the absolute temperature in K. This quantity is useful when comparing two similar interactions that differ in their KD, i.e. variants of the same peptide that have a single-point mutation or a post-translational modification (PTM) and […]
as §4
(§10) Determination of rotational correlation times and translational diffusion coefficients Residue-specific cross-correlated relaxation rates were determined at 800 MHz via the 2D TRACT experiment1, 12-13,using variable delays from 1-190 ms. […]

CIN85 SH3A domain [4] = biological target: T3, CIN85 SH3A domain (Homo sapiens, UniProt Q96B97); assay: NMR titration (chemical shift perturbations) of 15N-labeled SH3A domain with synthetic CIN85-PRM1 peptide; format: binding; details: isolated SH3A domain, CSP of 15N-labeled domain, error of fitted KD from bootstrap resampling, read-out: KD (mM), binary SH3:peptide interaction
T3 construct: GST (with thrombin cleavage site) (N); made in house; host or cells: Escherichia coli BL21(DE3)
T3 sequence (Q96B97 1-58 limits assumed): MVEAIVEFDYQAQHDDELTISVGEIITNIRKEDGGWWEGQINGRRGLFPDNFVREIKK
Excerpt: as §7, §8, §9, §4, §10

CIN85 SH3C domain [5] = biological target: T4, CIN85 SH3C domain (human, UniProt Q96B97-1 262-333); assay: NMR titration; 15N-labelled isolated SH3 domain titrated with synthetic 14-residue peptide; chemical shift perturbations; KD fitted, error by bootstrap resampling; details: both partners purified
T4 construct: the NMR structure PDB 2k9g of SH3C was used to map the shifts; 15N-labelled for NMR; The limits of PDB 2k9g may differ from those of the construct; also called C-terminal SH3 domain
T4 sequence: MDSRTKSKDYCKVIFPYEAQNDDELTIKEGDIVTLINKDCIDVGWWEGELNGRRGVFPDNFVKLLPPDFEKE

CIN85 SH3B domain [6] = biological target: T5, CIN85 SH3B domain (human); assay: as above; details: both partners purified
T5 chain: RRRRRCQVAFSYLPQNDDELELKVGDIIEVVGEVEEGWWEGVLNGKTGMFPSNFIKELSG

CIN85 SH3A domain [7] = biological target: T6, CIN85 SH3A domain (human); assay: as above; details: both partners purified
T6 chain: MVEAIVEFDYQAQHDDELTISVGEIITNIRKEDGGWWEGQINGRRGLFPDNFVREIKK

Kd (CIN85 SH3C domain [1]; isolated SH3C domain, NMR titration, CSP of 15N-labeled domain, error of fitted KD from bootstrap resampling, read-out: KD (mM), binary SH3:peptide interaction): > 2.45 mM
Molecule: Ac-FKDKPIKLAPASIE-NH2 [^219FKDKPIKLAPASIE^232]

difference in binding energy compared to wild-type peptide (ΔΔG, net energetic contribution of the mutated residue) (CIN85 SH3C domain [1]): 0.784 ± 0.0478 kcal/mol
fold increase of KD compared to wild-type peptide (CIN85 SH3C domain [1]): 4 fold
Molecule: Ac-FKDKPIKLAPRSIE-NH2 [^219FKDKPIKLAPRSIE^232]

difference in binding energy compared to wild-type peptide (ΔΔG, net energetic contribution of the mutated residue) (CIN85 SH3C domain [1]): 1.51 ± 0.239 kcal/mol
fold increase of KD compared to wild-type peptide (CIN85 SH3C domain [1]): 12 fold
Molecule: Ac-FKDKPIKLRPASIE-NH2 [^219FKDKPIKLRPASIE^232]

Molecule: Ac-FKDKPIKLRPRSIE-NH2 [^219FKDKPIKLRPRSIE^232]
fold lower dissociation constant (KD) of SH3C than SH3A (CIN85 SH3C domain [2]; SH3C versus SH3A): 3 fold
fold lower dissociation constant (KD) of SH3C than SH3B (CIN85 SH3C domain [2]; SH3C versus SH3B): 5 fold
Kd (CIN85 SH3B domain [3]): 1.09 ± 0.05 mM
Kd (CIN85 SH3A domain [4]): 0.73 ± 0.02 mM

Kd (CIN85 SH3C domain [5]): 2350 µM
B1: CIN85-PRM1 peptide pS230 (residues 219-232) (peptide)
peptide: FKDKPIKLRPR[pS]IE
notes: CIN85, human, residues 219-232 with phosphoserine at S230; also called pS230 peptide; source: synthetic peptide

Kd (CIN85 SH3B domain [6]): 1090 µM
Kd (CIN85 SH3A domain [7]): 730 µM
Kd (CIN85 SH3C domain [5]): 210 µM
B2: CIN85-PRM1 peptide, wild type (residues 219-232) (peptide)
peptide: FKDKPIKLRPRSIE
notes: CIN85, human, residues 219-232 of the linker between SH3B and SH3C, holding the proline-rich motif CIN85-PRM1; also called wild-type CIN85-PRM1 peptide; source: synthetic peptide

Kd (CIN85 SH3C domain [5]): 2450 µM
B3: CIN85-PRM1 peptide R229A (residues 219-232) (peptide)
peptide: FKDKPIKLRPASIE
notes: CIN85, human, residues 219-232 with R229A; also called R229A mutant peptide; source: synthetic peptide

Kd (CIN85 SH3C domain [5]): 710 µM
B4: CIN85-PRM1 peptide S230D (residues 219-232) (peptide)
peptide: FKDKPIKLRPRDIE
notes: CIN85, human, residues 219-232 with the phosphomimetic S230D; also called S230D peptide; source: synthetic peptide

Kd (CIN85 SH3C domain [5]): > 2450 µM
B5: CIN85-PRM1 peptide R227A/R229A (residues 219-232) (peptide)
peptide: FKDKPIKLAPASIE
notes: CIN85, human, residues 219-232 with R227A and R229A; also called R227A/R229A mutant peptide; source: synthetic peptide

Kd (CIN85 SH3C domain [5]): 200 µM
B6: CIN85-PRM1 peptide S230A (residues 219-232) (peptide)
peptide: FKDKPIKLRPRAIE
notes: CIN85, human, residues 219-232 with S230A; also called S230A peptide; source: synthetic peptide

Kd (CIN85 SH3C domain [5]): 750 µM
B7: CIN85-PRM1 peptide R227A (residues 219-232) (peptide)
peptide: FKDKPIKLAPRSIE
notes: CIN85, human, residues 219-232 with R227A; also called R227A mutant peptide; source: synthetic peptide
